According to publication PMC9250534, “Synthesis and direct assay of large macrocycle diversities by combinatorial late-stage modification at picomole scale” (Nature Communications, 2022):

What follows are compounds tested against MDM2 (Homo sapiens, UniProt Q00987) (assay: MDM2 binding screen of Libraries 3 and 4: displacement of fluorescent probe F-M8 at 750 nM macrocycle). Conditions: Panel b, Library 3: 63 scaffolds combinatorially acylated with 15 carboxylic acids at 30 picomole scale; displacement of fluorescent peptide probe; macrocycle 750 nM.
Procedure, shortened: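 Cyclic peptide scaffolds were acylated in DMSO with carboxylic acids (20 equiv.), HBTU and DABCO for 6 h at room temperature. Reactions were quenched overnight in 100 mM Tris-Cl pH 7.4, 0.01% Tween20. The fluorescein conjugate was also competed with nutlin-3a.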

Chain of MDM2 (Q00987 whole entry): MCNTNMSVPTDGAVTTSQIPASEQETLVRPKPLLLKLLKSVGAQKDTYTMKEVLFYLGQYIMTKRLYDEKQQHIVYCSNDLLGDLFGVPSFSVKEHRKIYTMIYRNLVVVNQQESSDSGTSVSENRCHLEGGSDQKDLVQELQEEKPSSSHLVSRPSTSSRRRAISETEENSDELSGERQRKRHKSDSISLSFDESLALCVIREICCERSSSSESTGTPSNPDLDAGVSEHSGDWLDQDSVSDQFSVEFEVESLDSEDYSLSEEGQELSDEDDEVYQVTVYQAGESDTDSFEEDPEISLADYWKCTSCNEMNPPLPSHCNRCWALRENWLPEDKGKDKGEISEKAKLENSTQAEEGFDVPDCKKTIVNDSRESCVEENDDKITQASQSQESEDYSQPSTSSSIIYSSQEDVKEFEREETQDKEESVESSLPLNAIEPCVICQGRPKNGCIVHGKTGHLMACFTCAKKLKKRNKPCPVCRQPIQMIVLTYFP

SMILES | fraction of fluorescent probe displaced
CC(Oc1cccc(Cl)c1)C(=O)NC[C@H]1NC(=O)[C@H]2CCCN(C2)C(=O)CCSSCCNC(=O)[C@H](Cc2c[nH]c3ccccc23)NC1=O (stereo partly drawn) [X-Nip-D-Dap-Trp + Acid 113] | -0.019
O=C(CCS(=O)(=O)c1ccccc1)NC[C@H]1NC(=O)[C@H]2CCCN(C2)C(=O)CCSSCCNC(=O)[C@H](Cc2c[nH]c3ccccc23)NC1=O [X-Nip-D-Dap-Trp + Acid 114] | -0.00533
O=C(NC[C@@H]1NC(=O)[C@H]2CCCN(C2)C(=O)CCSSCCNC(=O)[C@H](Cc2cccc3ccccc23)NC1=O)c1ccc(Cl)s1 [X-Nip-Dap-1-NaI + Acid 14] | 0.028
O=C(NC[C@@H]1NC(=O)[C@H]2CCCN(C2)C(=O)CCSSCCNC(=O)[C@H](Cc2cccc3ccccc23)NC1=O)c1ccc2ccccc2c1 [X-Nip-Dap-1-NaI + Acid 107] | 0.056
O=C(/C=C/c1ccc(Cl)cc1)NC[C@@H]1NC(=O)[C@H]2CCCN(C2)C(=O)CCSSCCNC(=O)[C@H](Cc2cccc3ccccc23)NC1=O [X-Nip-Dap-1-NaI + Acid 108] | 0.041
O=C(/C=C/c1ccc(OCc2ccccc2)cc1)NC[C@@H]1NC(=O)[C@H]2CCCN(C2)C(=O)CCSSCCNC(=O)[C@H](Cc2cccc3ccccc23)NC1=O [X-Nip-Dap-1-NaI + Acid 110] | 0.008
O=C(/C=C/c1ccc2ccccc2c1)NC[C@@H]1NC(=O)[C@H]2CCCN(C2)C(=O)CCSSCCNC(=O)[C@H](Cc2cccc3ccccc23)NC1=O [X-Nip-Dap-1-NaI + Acid 112] | 0.095
CC(Oc1cccc(Cl)c1)C(=O)NC[C@@H]1NC(=O)[C@H]2CCCN(C2)C(=O)CCSSCCNC(=O)[C@H](Cc2cccc3ccccc23)NC1=O (stereo partly drawn) [X-Nip-Dap-1-NaI + Acid 113] | -0.019
O=C(NC[C@@H]1NC(=O)[C@H]2CCCN(C2)C(=O)CCSSCCNC(=O)[C@H](Cc2ccc3ccccc3c2)NC1=O)c1ccc(Cl)s1 [X-Nip-Dap-2-Nal + Acid 14] | 0.015
O=C(/C=C/c1ccc(Cl)cc1)NC[C@@H]1NC(=O)[C@H]2CCCN(C2)C(=O)CCSSCCNC(=O)[C@H](Cc2ccc3ccccc3c2)NC1=O [X-Nip-Dap-2-Nal + Acid 108] | 0.021
O=C(/C=C/c1ccc(OCc2ccccc2)cc1)NC[C@@H]1NC(=O)[C@H]2CCCN(C2)C(=O)CCSSCCNC(=O)[C@H](Cc2ccc3ccccc3c2)NC1=O [X-Nip-Dap-2-Nal + Acid 110] | 0.021
O=C(/C=C/c1ccc2ccccc2c1)NC[C@@H]1NC(=O)[C@H]2CCCN(C2)C(=O)CCSSCCNC(=O)[C@H](Cc2ccc3ccccc3c2)NC1=O [X-Nip-Dap-2-Nal + Acid 112] | 0.021
O=C(NC[C@@H]1NC(=O)[C@H]2CCCN(C2)C(=O)CCSSCCNC(=O)[C@H](Cc2c[nH]c3cc(Cl)ccc23)NC1=O)c1ccc(Cl)s1 [X-Nip-Dap-Cl-Trp + Acid 14] | 0.181
O=C(NC[C@@H]1NC(=O)[C@H]2CCCN(C2)C(=O)CCSSCCNC(=O)[C@H](Cc2c[nH]c3cc(Cl)ccc23)NC1=O)c1ccc2ccccc2c1 [X-Nip-Dap-Cl-Trp + Acid 107] | 0.232
O=C(/C=C/c1ccc(Cl)cc1)NC[C@@H]1NC(=O)[C@H]2CCCN(C2)C(=O)CCSSCCNC(=O)[C@H](Cc2c[nH]c3cc(Cl)ccc23)NC1=O [X-Nip-Dap-Cl-Trp + Acid 108] | 0.108

Same assay, conditions: Panel c, Library 4: best nine scaffolds and 15 additional carboxylic acids; displacement of fluorescent probe

SMILES | fraction of fluorescent probe displaced
O=C(/C=C/c1ccc(F)cc1)NC[C@@H]1NC(=O)[C@H]2CCCN(C2)C(=O)CCSSCCNC(=O)[C@H](Cc2cccc3ccccc23)NC1=O [X-Nip-Dap-1-NaI + Acid 116] | 0.052
CCOc1ccc(/C=C/C(=O)NC[C@@H]2NC(=O)[C@H]3CCCN(C3)C(=O)CCSSCCNC(=O)[C@H](Cc3cccc4ccccc34)NC2=O)cc1 [X-Nip-Dap-1-NaI + Acid 117] | 0.069
CCCOc1ccc(/C=C/C(=O)NC[C@@H]2NC(=O)[C@H]3CCCN(C3)C(=O)CCSSCCNC(=O)[C@H](Cc3cccc4ccccc34)NC2=O)cc1 [X-Nip-Dap-1-NaI + Acid 118] | -0.00464
O=C(/C=C/c1ccc(Cl)c(Cl)c1)NC[C@@H]1NC(=O)[C@H]2CCCN(C2)C(=O)CCSSCCNC(=O)[C@H](Cc2cccc3ccccc23)NC1=O [X-Nip-Dap-1-NaI + Acid 119] | 0.0035
O=C(/C=C/c1cccc(Cl)c1)NC[C@@H]1NC(=O)[C@H]2CCCN(C2)C(=O)CCSSCCNC(=O)[C@H](Cc2cccc3ccccc23)NC1=O [X-Nip-Dap-1-NaI + Acid 121] | -0.00464
O=C(/C=C/c1cccc(C(F)(F)F)c1)NC[C@@H]1NC(=O)[C@H]2CCCN(C2)C(=O)CCSSCCNC(=O)[C@H](Cc2cccc3ccccc23)NC1=O [X-Nip-Dap-1-NaI + Acid 122] | 0.0035
CC(=Cc1ccccc1)C(=O)NCC1NC(=O)C2CCCN(C2)C(=O)CCSSCCNC(=O)C(Cc2cccc3ccccc23)NC1=O (stereo not drawn) [X-Nip-Dap-1-NaI + Acid 123] | -0.013
CC(C)c1ccc(/C=C/C(=O)NC[C@@H]2NC(=O)[C@H]3CCCN(C3)C(=O)CCSSCCNC(=O)[C@H](Cc3cccc4ccccc34)NC2=O)cc1 [X-Nip-Dap-1-NaI + Acid 127] | 0.0035
O=C(NC[C@@H]1NC(=O)[C@H]2CCCN(C2)C(=O)CCSSCCNC(=O)[C@H](Cc2cccc3ccccc23)NC1=O)c1cnc2ccccc2n1 [X-Nip-Dap-1-NaI + Acid 130] | 0.020
O=C(/C=C/c1ccc(F)cc1)NC[C@@H]1NC(=O)[C@H]2CCCN(C2)C(=O)CCSSCCNC(=O)[C@H](Cc2ccc3ccccc3c2)NC1=O [X-Nip-Dap-2-Nal + Acid 116] | 0.052
CCOc1ccc(/C=C/C(=O)NC[C@@H]2NC(=O)[C@H]3CCCN(C3)C(=O)CCSSCCNC(=O)[C@H](Cc3ccc4ccccc4c3)NC2=O)cc1 [X-Nip-Dap-2-Nal + Acid 117] | 0.069
CCCOc1ccc(/C=C/C(=O)NC[C@@H]2NC(=O)[C@H]3CCCN(C3)C(=O)CCSSCCNC(=O)[C@H](Cc3ccc4ccccc4c3)NC2=O)cc1 [X-Nip-Dap-2-Nal + Acid 118] | 0.012
O=C(/C=C/c1ccc(Cl)c(Cl)c1)NC[C@@H]1NC(=O)[C@H]2CCCN(C2)C(=O)CCSSCCNC(=O)[C@H](Cc2ccc3ccccc3c2)NC1=O [X-Nip-Dap-2-Nal + Acid 119] | 0.020
O=C(/C=C/c1cccc(C(F)(F)F)c1)NC[C@@H]1NC(=O)[C@H]2CCCN(C2)C(=O)CCSSCCNC(=O)[C@H](Cc2ccc3ccccc3c2)NC1=O [X-Nip-Dap-2-Nal + Acid 122] | 0.012
CC(=Cc1ccccc1)C(=O)NCC1NC(=O)C2CCCN(C2)C(=O)CCSSCCNC(=O)C(Cc2ccc3ccccc3c2)NC1=O (stereo not drawn) [X-Nip-Dap-2-Nal + Acid 123] | 0.012
CC(C)c1ccc(/C=C/C(=O)NC[C@@H]2NC(=O)[C@H]3CCCN(C3)C(=O)CCSSCCNC(=O)[C@H](Cc3ccc4ccccc4c3)NC2=O)cc1 [X-Nip-Dap-2-Nal + Acid 127] | -0.021
O=C(NC[C@@H]1NC(=O)[C@H]2CCCN(C2)C(=O)CCSSCCNC(=O)[C@H](Cc2ccc3ccccc3c2)NC1=O)c1cnc2ccccc2n1 [X-Nip-Dap-2-Nal + Acid 130] | 0.0035
